# Data as given in patent US10294202B2, “Pyrrolidinones as herbicides” (FMC Corporation, priority 2013, dated 2019).
# Experiments:
# barnyardgrass [1] = experiment: Test A pre-/postemergence herbicide test; format: in vivo, Echinochloa crus-galli
# Outline: (§1)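 Greenhouse pot test with pre- and postemergence application of surfactant-containing solvent formulations. Postemergence plants were 2–10 cm, one- to two-leaf stage. Response scored visually after ~10 days, 0 (no effect) to 100 (complete control).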
# ryegrass, Italian = experiment: Test A pre-/postemergence herbicide test; format: in vivo, Lolium multiflorum
# Outline: as §1
# kochia = experiment: Test A pre-/postemergence herbicide test; format: in vivo, Kochia scoparia
# Outline: as §1
# ducksalad = experiment: Test B flooded paddy test; format: in vivo, Heteranthera limosa; details: 500 g ai/ha, Flood; scale of 0 to 100 where 0 is no effect and 100 is complete control
# Outline: (§2)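 Scored visually 0–100 (0 no effect, 100 complete control) versus controls after 13 to 15 greenhouse days. Treatment: compound added to paddy water kept 3 cm above soil, on 2-leaf-stage plants.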
# giant foxtail = experiment: Test A pre-/postemergence herbicide test; format: in vivo, Setaria faberii
# Outline: as §1
# blackgrass = experiment: Test A postemergence herbicide test; format: in vivo, Alopecurus myosuroides
# Outline: (§3)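 Young potted plants in a loam–sand mix, one- to two-leaf stage and 2–10 cm tall, receive the test chemical postemergence and stay in a greenhouse for approximately 10 days. Injury is then judged by eye against untreated plants, scored 0 (none) to 100 (complete control).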
# corn = experiment: Test A pre-/postemergence herbicide test; format: in vivo, Zea mays; details: Postemergence
# Outline: as §1
# barnyardgrass [2] = experiment: Test B flooded paddy test; format: in vivo, Echinochloa crus-galli; details: 500 g ai/ha, Flood; scale of 0 to 100 where 0 is no effect and 100 is complete control
# Outline: as §2
# ragweed = experiment: Test A pre-/postemergence herbicide test; format: in vivo, Ambrosia elatior
# Outline: as §1
# rice = experiment: Test B flooded paddy test; format: in vivo, Oryza sativa; details: 500 g ai/ha, Flood; scale of 0 to 100 where 0 is no effect and 100 is complete control
# Outline: as §2
# sedge, umbrella = experiment: Test B flooded paddy test; format: in vivo, Cyperus difformis; details: 500 g ai/ha, Flood; scale of 0 to 100 where 0 is no effect and 100 is complete control
# Outline: as §2
# pigweed = experiment: Test A pre-/postemergence herbicide test; format: in vivo, Amaranthus retroflexus
# Outline: as §1
# wheat = experiment: Test A pre-/postemergence herbicide test; format: in vivo, Triticum aestivum; details: Postemergence
# Outline: as §1
# galium = experiment: Test A postemergence herbicide test; format: in vivo, Galium aparine
# Outline: as §3
# [3] = 125 g ai/ha, visual rating, 0 to 100 scale, 0 no effect, 100 complete control, approximately 10 days, preemergence
# [4] = Postemergence, 125 g ai/ha, 0 to 100 scale, 0 no effect, 100 complete control
# [5] = Postemergence, 500 g ai/ha, 0 to 100 scale (0 no effect, 100 complete control)
# [6] = preemergence, 500 g ai/ha, 0 to 100 scale
# [7] = 125 g ai/ha, 0 to 100 scale, 0 no effect, 100 complete control
# [8] = 500 g ai/ha, 0 to 100 scale (0 no effect, 100 complete control)
# [9] = Postemergence, 125 g ai/ha, visual rating on 0 to 100 scale (0 no effect, 100 complete control), approx. 10 days
# [10] = Preemergence, 125 g ai/ha, 0 to 100 scale where 0 is no effect and 100 is complete control
# [11] = Preemergence, 500 g ai/ha, visual rating on 0 to 100 scale (0 no effect, 100 complete control)
# [12] = 125 g ai/ha, visual rating on 0 to 100 scale (0 no effect, 100 complete control), approx. 10 days
# [13] = preemergence, 500 g ai/ha, 0 to 100 scale, 0 is no effect and 100 is complete control
smiles,measurement,setting,value
O=C1NCC(c2cccc(OC(F)(F)C(F)F)c2)C1C(=O)Nc1cccc(F)c1F (racemic) [Compound 123],"Plant response rating, Barnyardgrass",barnyardgrass [1]; [3],80
same,"Plant response rating, Barnyardgrass",barnyardgrass [1]; [4],70
same,"Plant response rating, Barnyardgrass",barnyardgrass [1]; [5],80
same,"Plant response rating, Barnyardgrass","barnyardgrass [1]; preemergence, 500 g ai/ha, 0 to 100 scale (0 no effect, 100 complete control)",90
same,"Plant response rating, Ryegrass, Italian","ryegrass, Italian; [3]",40
same,"Plant response rating, Ryegrass, Italian","ryegrass, Italian; [4]",40
same,"Ryegrass, Italian plant response rating (0 to 100 scale, 0 is no effect, 100 is complete control)","ryegrass, Italian; Postemergence, 500 g ai/ha",50
same,"Plant response rating, Ryegrass, Italian","ryegrass, Italian; [6]",60
same,"Plant response rating, Kochia",kochia; [3],80
same,"Plant response rating, Kochia",kochia; [4],60
same,"Kochia plant response rating (0 to 100 scale, 0 is no effect, 100 is complete control)","kochia; Postemergence, 500 g ai/ha",70
same,"Plant response rating, Kochia",kochia; [6],90
same,"Plant response rating, Ducksalad",ducksalad,100
same,"Plant response rating, Foxtail, Giant",giant foxtail; [3],90
same,"Plant response rating, Foxtail, Giant",giant foxtail; [4],80
same,"Foxtail, Giant plant response rating (0 to 100 scale, 0 is no effect, 100 is complete control)","giant foxtail; Postemergence, 500 g ai/ha",90
same,"Plant response rating, Foxtail, Giant",giant foxtail; [6],90
same,"Plant response rating, Blackgrass",blackgrass; [7],60
same,"Plant response rating, Blackgrass",blackgrass; [8],70
same,"Plant response rating, Corn",corn; [7],50
same,"Plant response rating, Corn",corn; [8],80
same,"Plant response rating, Barnyardgrass",barnyardgrass [2],60
same,"Plant response rating, Ragweed",ragweed; [3],70
same,"Plant response rating, Ragweed",ragweed; [4],50
same,"Ragweed plant response rating (0 to 100 scale, 0 is no effect, 100 is complete control)","ragweed; Postemergence, 500 g ai/ha",70
same,"Plant response rating, Ragweed",ragweed; [6],80
same,"Plant response rating, Rice",rice,0
same,"Plant response rating, Sedge, Umbrella","sedge, umbrella",0
same,"Plant response rating, Pigweed",pigweed; [3],70
same,"Plant response rating, Pigweed",pigweed; [4],80
same,"Pigweed plant response rating (0 to 100 scale, 0 is no effect, 100 is complete control)","pigweed; Postemergence, 500 g ai/ha",90
same,"Plant response rating, Pigweed",pigweed; [6],80
same,"Plant response rating, Wheat",wheat; [7],50
same,"Wheat plant response rating (0 to 100 scale, 0 is no effect, 100 is complete control)",wheat; 500 g ai/ha,60
same,"Plant response rating, Galium",galium; [7],60
same,"Galium plant response rating (0 to 100 scale, 0 is no effect, 100 is complete control)",galium; 500 g ai/ha,70
O=C1NCC(c2ccc(Br)c(Br)c2)C1C(=O)Nc1ccccc1F (stereo not drawn) [Compound 339],"Plant response rating, Barnyardgrass",barnyardgrass [1]; [9],40
same,"Plant response rating, Barnyardgrass",barnyardgrass [1]; [5],60
same,"Plant response rating, Barnyardgrass",barnyardgrass [1]; [10],60
same,Barnyardgrass plant response rating,barnyardgrass [1]; [11],80
same,"Plant response rating, Ryegrass, Italian","ryegrass, Italian; [9]",0
same,"Plant response rating, Ryegrass, Italian","ryegrass, Italian; [10]",0
same,"Ryegrass, Italian plant response rating","ryegrass, Italian; [11]",20
same,"Plant response rating, Kochia",kochia; [9],0
same,"Plant response rating, Kochia",kochia; [10],0
same,Kochia plant response rating,kochia; [11],0
same,"Plant response rating, Ducksalad",ducksalad,65
same,"Plant response rating, Foxtail, Giant",giant foxtail; [9],60
same,"Plant response rating, Foxtail, Giant",giant foxtail; [5],60
same,"Plant response rating, Foxtail, Giant",giant foxtail; [10],70
same,"Foxtail, Giant plant response rating",giant foxtail; [11],80
same,"Plant response rating, Blackgrass",blackgrass; [12],0
same,"Plant response rating, Blackgrass",blackgrass; [8],0
same,"Plant response rating, Corn",corn; [12],0
same,"Plant response rating, Corn",corn; [8],0
same,"Plant response rating, Barnyardgrass",barnyardgrass [2],40
same,"Plant response rating, Ragweed",ragweed; [9],0
same,"Plant response rating, Ragweed",ragweed; [10],0
same,Ragweed plant response rating,ragweed; [11],0
same,"Plant response rating, Rice",rice,0
same,"Plant response rating, Sedge, Umbrella","sedge, umbrella",0
same,"Plant response rating, Pigweed",pigweed; [9],0
same,"Plant response rating, Pigweed",pigweed; [10],0
same,Pigweed plant response rating,pigweed; [11],0
same,"Plant response rating, Wheat",wheat; [12],0
same,"Plant response rating, Galium",galium; [12],0
O=C1NCC(c2ccc(Cl)c(Cl)c2)C1C(=O)Nc1ccc(F)c(F)c1F (stereo not drawn) [Compound 286],"Plant response rating, Barnyardgrass",barnyardgrass [1]; [9],60
same,"Plant response rating, Barnyardgrass",barnyardgrass [1]; [5],60
same,"Plant response rating, Barnyardgrass",barnyardgrass [1]; [10],60
same,"Plant response rating, Barnyardgrass",barnyardgrass [1]; [13],60
same,"Plant response rating, Ryegrass, Italian","ryegrass, Italian; [9]",0
same,"Plant response rating, Ryegrass, Italian","ryegrass, Italian; [5]",20
same,"Plant response rating, Ryegrass, Italian","ryegrass, Italian; [10]",0
same,"Ryegrass, Italian plant response rating","ryegrass, Italian; [11]",20
same,"Plant response rating, Kochia",kochia; [9],0
same,"Plant response rating, Kochia",kochia; [5],20
same,"Plant response rating, Kochia",kochia; [10],30
same,"Plant response rating, Kochia",kochia; [13],40
same,"Plant response rating, Ducksalad",ducksalad,75
same,"Plant response rating, Foxtail, Giant",giant foxtail; [9],60
same,"Plant response rating, Foxtail, Giant",giant foxtail; [5],70
same,"Plant response rating, Foxtail, Giant",giant foxtail; [10],80
same,"Plant response rating, Foxtail, Giant",giant foxtail; [13],80
same,"Plant response rating, Blackgrass",blackgrass; [12],0
same,"Plant response rating, Blackgrass",blackgrass; [8],0
same,"Plant response rating, Corn",corn; [12],0
same,"Plant response rating, Corn",corn; [8],0
same,"Plant response rating, Barnyardgrass",barnyardgrass [2],15
same,"Plant response rating, Ragweed",ragweed; [9],0
same,"Plant response rating, Ragweed",ragweed; [5],0
same,"Plant response rating, Ragweed",ragweed; [10],0
same,"Plant response rating, Ragweed",ragweed; [13],0
same,"Plant response rating, Rice",rice,10
same,"Plant response rating, Sedge, Umbrella","sedge, umbrella",0
same,"Plant response rating, Pigweed",pigweed; [9],0
same,"Plant response rating, Pigweed",pigweed; [5],0
same,"Plant response rating, Pigweed",pigweed; [10],20
same,"Plant response rating, Pigweed",pigweed; [13],30
same,"Plant response rating, Wheat",wheat; [12],0
same,"Plant response rating, Wheat",wheat; [8],0
same,"Plant response rating, Galium",galium; [12],0
same,"Plant response rating, Galium",galium; [8],0
